The test system of data set [1] is primary cortical neurons. As to conditions: cited from earlier work; for neuroprotection: at 10 μM.
Data set [2] deals with T1, HDAC6 (Homo sapiens, UniProt Q9UBN7).
T1 sequence (Q9UBN7 1-1215): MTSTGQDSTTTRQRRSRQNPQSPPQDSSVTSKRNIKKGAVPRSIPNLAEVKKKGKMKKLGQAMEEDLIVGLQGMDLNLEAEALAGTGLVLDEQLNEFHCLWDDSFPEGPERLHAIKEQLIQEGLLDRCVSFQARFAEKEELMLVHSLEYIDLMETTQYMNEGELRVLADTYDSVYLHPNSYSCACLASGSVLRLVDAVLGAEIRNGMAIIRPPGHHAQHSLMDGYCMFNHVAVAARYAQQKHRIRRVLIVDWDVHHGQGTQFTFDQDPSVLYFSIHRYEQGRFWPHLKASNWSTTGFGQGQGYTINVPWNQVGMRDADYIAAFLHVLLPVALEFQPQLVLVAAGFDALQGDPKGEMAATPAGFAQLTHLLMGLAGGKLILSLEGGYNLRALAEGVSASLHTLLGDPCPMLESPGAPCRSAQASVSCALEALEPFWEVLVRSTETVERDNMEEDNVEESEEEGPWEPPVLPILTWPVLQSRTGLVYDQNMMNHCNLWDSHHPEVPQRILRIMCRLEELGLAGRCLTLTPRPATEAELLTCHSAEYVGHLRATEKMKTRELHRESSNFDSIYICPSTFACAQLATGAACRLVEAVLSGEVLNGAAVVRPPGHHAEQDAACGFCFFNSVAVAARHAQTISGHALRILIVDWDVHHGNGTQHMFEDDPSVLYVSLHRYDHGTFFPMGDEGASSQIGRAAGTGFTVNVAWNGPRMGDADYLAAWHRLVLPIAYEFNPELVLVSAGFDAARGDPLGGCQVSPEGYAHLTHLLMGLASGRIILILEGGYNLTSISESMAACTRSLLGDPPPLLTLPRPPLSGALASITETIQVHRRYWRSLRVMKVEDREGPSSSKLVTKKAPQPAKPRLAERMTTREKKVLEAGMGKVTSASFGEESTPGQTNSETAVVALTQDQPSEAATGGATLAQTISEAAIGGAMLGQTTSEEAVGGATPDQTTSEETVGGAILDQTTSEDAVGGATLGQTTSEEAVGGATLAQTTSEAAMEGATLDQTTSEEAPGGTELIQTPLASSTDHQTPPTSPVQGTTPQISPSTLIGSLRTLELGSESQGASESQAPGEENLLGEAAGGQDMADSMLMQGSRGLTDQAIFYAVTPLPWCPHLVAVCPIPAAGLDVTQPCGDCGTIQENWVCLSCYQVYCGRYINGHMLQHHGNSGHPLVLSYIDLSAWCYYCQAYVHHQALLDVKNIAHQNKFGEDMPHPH
As to conditions: read-out: HDAC6 IC50, cited from earlier work.

Another data set deals with total HDACs. As to conditions: read-out: Total HDAC (IC50); cited from earlier work.
The conditions of data set [3]: mice, 400 mg/kg, IP, plasma; cited from earlier work.
The subject of data set [4] is nonmalignant cells (267-B1 and RWPE-1). As to conditions: cited from earlier work.
Another data set relates to Caco-2 cells. The note with it: cited from earlier work; for permeability classification: moderately permeable = 2 × 10^−6 cm/s < Papp(A–B) < 20 × 10^−6 cm/s.
For data set [5] the following is noted: IP, cited from earlier work; for behavior of the mice: 0.5 to 400 mg/kg.
The subject of data set [6] is prostate cancer cells (PC-3 and LNCap). As to conditions: cited from earlier work.
Another data set has as its system PC-3 tumors. As to conditions: cited from earlier work; for tumor growth: IP, 28 days, 0.5 mg/kg; for mortality or body-weight loss: during the treatment, 0.5 mg/kg IP.
The subject of data set [7] is Ac-H4 in spleen, brain and liver. The note with it: 0.5 to 400 mg/kg, after 4 h treatment, dose-dependent; cited from earlier work.
The next data set deals with dendritic spine density. As to conditions: 50 mg/kg, IP; cited from earlier work.
The subject of data set [8] is N2a cells overexpressing hAPP. As to conditions: 5 μM, 24 h; cited from earlier work.
Data set [9] concerns monomorphic malignant human glioma cells (A172, U373MG, and T98G). The note with it: cited from earlier work.
For a further data set, the system named is hAPP 3 × Tg mice. As to conditions: 50 mg/kg, IP, four weeks, cited from earlier work.
The test system of data set [10] is primary cortical neurons. The note with it: 5 μM, 24 h; cited from earlier work.
The target in another data set is HDAC1 (Homo sapiens, UniProt Q13547). The data set can be described thus: HDAC1 enzymatic inhibition. It counts as biochemical.
Sequence of HDAC1 (Q13547 whole entry, species assumed): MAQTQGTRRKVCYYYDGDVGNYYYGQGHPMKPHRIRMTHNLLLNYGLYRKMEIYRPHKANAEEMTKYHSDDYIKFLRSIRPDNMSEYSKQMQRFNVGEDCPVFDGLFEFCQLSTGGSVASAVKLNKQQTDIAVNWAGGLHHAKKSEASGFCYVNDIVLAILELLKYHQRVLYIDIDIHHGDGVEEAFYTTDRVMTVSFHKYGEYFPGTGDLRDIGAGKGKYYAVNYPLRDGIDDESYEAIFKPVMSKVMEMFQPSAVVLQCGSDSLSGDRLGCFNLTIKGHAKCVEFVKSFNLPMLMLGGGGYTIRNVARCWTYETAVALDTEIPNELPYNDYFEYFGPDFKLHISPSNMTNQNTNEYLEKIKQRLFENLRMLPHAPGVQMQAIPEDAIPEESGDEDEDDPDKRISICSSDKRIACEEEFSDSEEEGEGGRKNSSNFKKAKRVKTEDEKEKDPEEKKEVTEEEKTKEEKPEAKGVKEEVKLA
For data set [11], the target named is T1, HDAC6. The data set can be described thus: HDAC6 enzymatic inhibition. The data set is classed as biochemical.
For the next data set, the target named is HDAC2 (Homo sapiens, UniProt Q92769). The data set can be described thus: HDAC2 enzymatic inhibition. It counts as biochemical.
Sequence of HDAC2 (Q92769 whole entry, species assumed): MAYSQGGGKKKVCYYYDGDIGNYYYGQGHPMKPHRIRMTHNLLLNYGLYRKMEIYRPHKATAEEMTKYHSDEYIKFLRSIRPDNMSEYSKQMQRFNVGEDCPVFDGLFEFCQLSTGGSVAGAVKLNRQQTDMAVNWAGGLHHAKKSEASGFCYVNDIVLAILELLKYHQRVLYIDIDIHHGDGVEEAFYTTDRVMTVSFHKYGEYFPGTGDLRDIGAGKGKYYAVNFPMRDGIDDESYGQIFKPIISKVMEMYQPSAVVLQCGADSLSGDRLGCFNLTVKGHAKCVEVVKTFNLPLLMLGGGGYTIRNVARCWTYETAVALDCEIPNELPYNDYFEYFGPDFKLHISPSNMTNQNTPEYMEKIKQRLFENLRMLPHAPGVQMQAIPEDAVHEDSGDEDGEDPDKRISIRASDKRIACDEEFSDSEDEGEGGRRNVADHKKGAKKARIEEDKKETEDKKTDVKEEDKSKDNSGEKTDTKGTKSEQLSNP
The target in a further data set is T2, HDAC8 (Homo sapiens, UniProt Q9BY41).
T2 sequence (Q9BY41 1-377): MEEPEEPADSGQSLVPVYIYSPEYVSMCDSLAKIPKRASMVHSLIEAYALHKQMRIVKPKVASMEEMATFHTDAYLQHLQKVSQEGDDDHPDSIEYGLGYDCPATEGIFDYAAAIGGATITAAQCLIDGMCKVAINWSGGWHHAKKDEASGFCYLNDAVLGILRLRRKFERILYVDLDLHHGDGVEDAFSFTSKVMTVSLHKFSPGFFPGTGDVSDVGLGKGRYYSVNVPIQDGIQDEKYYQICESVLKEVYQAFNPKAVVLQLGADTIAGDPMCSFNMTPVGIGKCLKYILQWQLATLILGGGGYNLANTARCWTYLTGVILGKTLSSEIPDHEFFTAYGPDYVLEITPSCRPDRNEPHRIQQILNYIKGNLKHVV
The note with it: read-out: HDAC8 IC50; cited from earlier work.

pIC50: −log10 of the molar value. Like-named read-outs stand apart in the source and are kept apart here.

Turning to `Cc1onc(-c2ccccc2)c1C(=O)NCCCCCNC(=O)CS` [Compound 34], the neuroprotection entry in the data set with primary cortical neurons [1] is recorded as “full neuroprotection”.

With `Cc1onc(-c2ccccc2)c1C(=O)NCCCCCNC(=O)[C@H](C)S` [Compound 37], the “prevention of glutathione depletion” value with primary cortical neurons [1] is reported as “ability to prevent glutathione depletion”.

As to `CN(C)c1ccc(C(=O)NCCCCCNC(=O)CS)cc1` [Compound 20], the negative logarithm of the IC50 (pIC50) (commonly the IC50 on a negative log10 scale, so that one unit is a factor of ten) at HDAC6 [2] (Table 1) is 6.96. For the same compound, in the data set with total HDACs, the negative-log IC50 (pIC50) was 6.70. In addition, the CL in data set [3] is 4.87 ± 0.2 L/h. For the same compound, the “inhibitory effects on nonmalignant cells” value in [4] was “no apparent inhibitory effects”. For the same compound, the permeability classification entry with Caco-2 cells is on record as “moderately permeable”. Moreover, the “behavior of the mice” value in data set [5] is recorded as “remain normal”. The anti-proliferative effects entry in data set [6] is “low-micromolar levels of anti-proliferative effects”. In addition, in the data set on PC-3 tumors, the tumor growth entry is given as “significant inhibition on the tumor growth” and the “mortality or body-weight loss” value is given as “no mortality or body-weight loss”. The “Ac-H4 levels in the spleen” value in [7] was “significantly increased”.

On to `O=C(CS)NCCCCCC(=O)Nc1cccc2cccnc12` [Compound 63], for which the pIC50 on HDAC6 [2] (Table 3) is 7.05. The dendritic spine density result with dendritic spine density was “promotes dendritic spine density”. The pIC50 with total HDACs is 7.40. Moreover, the “increase of cell surface APP” value in [8] is given as “two-fold”. For the same compound, the CL in data set [3] was 4.05 ± 0.15 L/h. In addition, in [4], the “inhibitory effects on nonmalignant cells” value is reported as “no apparent inhibitory effects”. Besides, in data set [9] (A172 and U373MG cells), the “levels of Ac-H3” value was “without influence” and the “levels of Ac-Tub” value is recorded as “significantly enhanced”. Further, the “cell migration and invasion” value in [9] (A172 cells) is “reduced cell migration and invasion”. Further, the “phosphorylation of FAK/STAT3” value in data set [9] is “suppress the phosphorylation of FAK/STAT3”. Besides, the “cytotoxicity in glioma cells” value in [9] (concentrations up to 50 μM) is listed as “did not show cytotoxicity”. In the data set on Caco-2 cells, the “transporters responsible for the efflux” value was “P-glycoprotein (P-gp) and multidrug resistance-associated protein 1 (MRP1)”; the permeability classification result is “moderately permeable”. Moreover, the “time to full recovery” value in data set [5] (400 mg/kg) is at most 1 h. In addition, in data set [5], the “behavior of the mice” value is given as “incapacitated 15 min after treating”. Besides, in the data set on hAPP 3 × Tg mice, the Aβ levels result was “decreased” and the “phosphorylated tau (Thr181) levels” value is “decreased”. For the same compound, the “learning and memory deficits” value in the data set with hAPP 3 × Tg mice (aged mice (9-10-month-old)) was “alleviated the learning and memory deficits”. The anti-proliferative effects result in data set [6] is “low-micromolar levels of anti-proliferative effects”. Moreover, the “increase of cell surface APP” value in the data set with primary cortical neurons [10] is “two-fold”. Moreover, in the data set on PC-3 tumors, the tumor growth entry was “significant inhibition on the tumor growth” and the “mortality or body-weight loss” value was “no mortality or body-weight loss”. The “Ac-H4 levels in the spleen” value in [7] is “significantly increased”.

Turning to `O=C(CS)NCCCCCC(=O)Nc1ccccc1` [Compound 11], the negative logarithm of the IC50 (pIC50) is 5.42 at HDAC1, 6.47 against HDAC6 [11] and below 4.52 against HDAC2. Further, the “SI, HDAC1/6 selectivity index” value on HDAC6 [11] (HDAC1/HDAC6, text prints -folds) was found to be 11.1.

Take `Cc1noc(-c2cccc(F)c2)c1C#CCCCCCNC(=O)C(C)S` (stereo not drawn) [Compound 50]: in the data set with primary cortical neurons [1], the neuroprotection result is “neuroprotective effects”.

For the compound `O=C(CS)NCCCCCn1ccc2cc(Cl)c(Cl)cc21` [Compound 74], the pIC50 against HDAC1 was below 4.52. Moreover, on HDAC6 [11], the pIC50 is 5.63 and the “SI, HDAC1/6 selectivity index” value is on record as above 12.8.

For `Cc1onc(-c2ccccc2)c1COCCCCCNC(=O)[C@H](C)S` [Compound 41], in the data set with primary cortical neurons [1], the “prevention of glutathione depletion” value is on record as “ability to prevent glutathione depletion”.

For the compound `Cc1onc(-c2ccccc2)c1C=CCCCCCNC(=O)C(C)S` (stereo not drawn) [Compound 45], the neuroprotection result with primary cortical neurons [1] is “neuroprotective effects”.

As for `O=C(NO)c1ccccc1` [phenylhydroxamate, reference compound], the results for the pIC50 at HDAC6 [2] and on HDAC8 were 6.94 and 5.72, respectively.

As for `Cc1noc(-c2ccccc2)c1C#CCCCCCNC(=O)C(C)S` (stereo not drawn) [Compound 49], in the data set on primary cortical neurons [1], the neuroprotection entry is reported as “neuroprotective effects”.

(Values after publication PMC7744439 (European journal of medicinal chemistry, 2020).)
